Test results reported in PubChem BioAssay AID1918941 (Molecular Pharmacology Branch, DTP, NCI, 2023).

Tested on: SW 1271 complex spheroids, viability
Assay: Anticancer human tumor SW 1271 cell line growth inhibition [LSD1];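 also: spheroids exposed to agents for 7 days before luminescence read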;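 as to viability, T/C: 100% = DMSO vehicle control viability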
Conditions: for IC50: curve of first compound; for viability, T/C: stronger effect = lower value
From the text: Multicellular complex tumor spheroid response to LSD1 Inhibitor Iadademstat in combination with a variety of drugs and investigational agents in selected tumor cell lines
The current study was undertaken to assess response to LSD1 inhibitors in combination with standard-of-care drugs and investigational agents in solid tumor complex spheroid models as well as in the K-562 leukemia. Complex spheroids include a stromal component modeled by human endothelial cells (HUVEC) and fibroblasts modeled by human mesenchymal stem cells (MSCs). The concentration ranges selected for each drug and investigational agent were based upon clinically achievable concentrations if the clinical Cmax of the agent was known.
Compounds. The drugs and investigational agents used in this study are listed on Table 1. All of the agents used, including staurosporine (NSC755774) and gemcitabine (NSC613327), were obtained from the Developmental Therapeutics Program, NCI. FDA-approved anticancer drugs are available from the NCI at http://dtp.nci.nih.gov/branches/dscb/oncology_drugset_explanation.html. Drugs and investigational agents were >95% pure by proton nuclear magnetic resonance (NMR) and liquid chromatography/mass spectrometry (LC/MS). Stock solutions were prepared at 400x in DMSO, stored at -70 degrees C, and diluted in fresh medium prior to their use. The final concentration of DMSO in cell culture wells never exceeded 0.25% (v/v). The FDA-approved anticancer drug set is available from the Developmental Therapeutics Program at https://dtp.cancer.gov/organization/dscb/obtaining/available_plates.htm. All drugs and investigational agents were tested over a range starting from a high concentration at or near the clinical Cmax and decreasing in half-log increments. If the clinical Cmax for an agent had not been determined, the highest concentration tested was 10 microM.
Cell Lines. The patient-derived cancer cell (PDC) lines: 292921-168-R-J2-PDC, K24384-001-R-PDC, and 521955-158-R2-J5-PDC pancreatic carcinomas, 556581-035-R-J1 ovarian carcinoma, 324938-238-R-J1-PDC, 855422-203-R-J1-PDC and 883617-216-R-J1-PDC urothelial bladder carcinomas, 743489-274-T-PDC renal cell carcinoma, 138582-R-J1 Merkel cell tumor, K60290-347-R-J1 and K57222-313-R-J1-PDC glioblastomas, 653999-131-R-J2-PDC, LG0703-F948-PDC, and 349418-098-R-PDC non-small cell lung carcinomas, 885512-296-R-J2-PDC, 171881-019-R-J1-PDC breast carcinomas and 186277-243-T-J2-PDC and 233499-124-R-J2-PDC colon carcinomas were obtained from the NCI Patient-Derived Models Repository (PDMR, https://pdmr.cancer.gov). The established cell lines NCI/ADR-RES (RRID:CVCL_14520 and OVCAR-5 (RRID:CVCL_1628) ovarian carcinomas, 786-O (RRID:CVCL_1051) and A498 (RRID:CVCL_A498) renal cell carcinoma, NCI-H211 (ATCC, cat. CRL-5824; RRID:CVCL_1529), NCI-H196 (ATCC, cat. CRL-5823, RRID:CVCL_1509), SW 1271 (ATCC, cat. CRL-2177, RRID:CVCL_1716) and NCI-H1876 (ATCC, cat. CRL-5902, RRID:CVCL_1503) small cell lung carcinomas, MDA-MB-231 (RRID:CVCL_0062) and MDA-MB-468 (RRID:CVCL_0419)breast carcinomas (10-12). Pooled donor human umbilical vein endothelial cells (HUVEC, Lonza, cat. CC-2519) and human mesenchymal stem cells (hMSC, Lonza, cat. PT-2501) were purchased from Lonza (Walkersville, MD).
Cell Culture. All cells were maintained in an incubator at 37 degrees C and 5% CO2 with 95% humidity. The PDC lines were cultured according to standard operating procedures established by the NCI PDMR (https://pdmr.cancer.gov). Briefly all PDCs were thawed and cultured in Matrigel-coated flasks prepared with a working solution of 1X Ham's F-12 nutrient mix, without supplementation (Invitrogen, Waltham, MA, cat. 11765054), 100 U/mL penicillin-streptomycin (Invitrogen, cat. 15140122), and 2.5% Matrigel (Corning Inc., Corning, NY, cat. 354248) for the first three passages. […]

COc1cc(C2c3cc4c(cc3C(OC3OC5COC(C)OC5C(O)C3O)C3COC(=O)C23)OCO4)cc(OC)c1O (stereo not given) + NC1CC1c1ccc(-c2cccc(O)c2)cc1
IC50 (second compound 0.1 µM): 1390 nM
IC50 (second compound 0.316 µM): > 3000 nM
IC50 (second compound 1 µM): 582 nM
IC50 (second compound 3.16 µM): > 3000 nM
IC50 (second compound 10 µM): 289 nM
viability, T/C (second compound 0.1 µM, first compound 0.00949 µM): 84.4%
viability, T/C (second compound 0.1 µM, first compound 0.03 µM): 68.3%
viability, T/C (second compound 0.1 µM, first compound 0.0949 µM): 63.8%
viability, T/C (second compound 0.1 µM, first compound 0.3 µM): 53.7%
viability, T/C (second compound 0.1 µM, first compound 0.949 µM): 56.7%
viability, T/C (second compound 0.1 µM, first compound 3 µM): 44.4%
viability, T/C (second compound 0.316 µM, first compound 0.00949 µM): 70.7%
viability, T/C (second compound 0.316 µM, first compound 0.03 µM): 58.9%
viability, T/C (second compound 0.316 µM, first compound 0.0949 µM): 67.7%
viability, T/C (second compound 0.316 µM, first compound 0.3 µM): 52.8%
viability, T/C (second compound 0.316 µM, first compound 0.949 µM): 49.9%
viability, T/C (second compound 0.316 µM, first compound 3 µM): 54%
viability, T/C (second compound 1 µM, first compound 0.00949 µM): 79.2%
viability, T/C (second compound 1 µM, first compound 0.03 µM): 67.9%
viability, T/C (second compound 1 µM, first compound 0.0949 µM): 62.9%
viability, T/C (second compound 1 µM, first compound 0.3 µM): 57.1%
viability, T/C (second compound 1 µM, first compound 0.949 µM): 45.8%
viability, T/C (second compound 1 µM, first compound 3 µM): 38%
viability, T/C (second compound 3.16 µM, first compound 0.00949 µM): 64.9%
viability, T/C (second compound 3.16 µM, first compound 0.03 µM): 55.2%
viability, T/C (second compound 3.16 µM, first compound 0.0949 µM): 61.3%
viability, T/C (second compound 3.16 µM, first compound 0.3 µM): 48.2%
viability, T/C (second compound 3.16 µM, first compound 0.949 µM): 48.5%
viability, T/C (second compound 3.16 µM, first compound 3 µM): 59.9%
viability, T/C (second compound 10 µM, first compound 0.00949 µM): 61%
viability, T/C (second compound 10 µM, first compound 0.03 µM): 60.9%
viability, T/C (second compound 10 µM, first compound 0.0949 µM): 53.1%
viability, T/C (second compound 10 µM, first compound 0.3 µM): 51.5%
viability, T/C (second compound 10 µM, first compound 0.949 µM): 41.6%
viability, T/C (second compound 10 µM, first compound 3 µM): 46.5%

Nc1ncn(C2CC(O)C(CO)O2)c(=O)n1 (stereo not given) + NC1CC1c1ccc(-c2cccc(O)c2)cc1
IC50 (second compound 0.1 µM): > 1000 nM
IC50 (second compound 0.316 µM): > 1000 nM
IC50 (second compound 1 µM): > 1000 nM
IC50 (second compound 3.16 µM): > 1000 nM
IC50 (second compound 10 µM): > 1000 nM
viability, T/C (second compound 0.1 µM, first compound 0.00316 µM): 96.2%
viability, T/C (second compound 0.1 µM, first compound 0.01 µM): 77.9%
viability, T/C (second compound 0.1 µM, first compound 0.0316 µM): 84.7%
viability, T/C (second compound 0.1 µM, first compound 0.1 µM): 62.4%
viability, T/C (second compound 0.1 µM, first compound 0.316 µM): 66.7%
viability, T/C (second compound 0.1 µM, first compound 1 µM): 81%
viability, T/C (second compound 0.316 µM, first compound 0.00316 µM): 68%
viability, T/C (second compound 0.316 µM, first compound 0.01 µM): 73.2%
viability, T/C (second compound 0.316 µM, first compound 0.0316 µM): 75.2%
viability, T/C (second compound 0.316 µM, first compound 0.1 µM): 71.6%
viability, T/C (second compound 0.316 µM, first compound 0.316 µM): 70.5%
viability, T/C (second compound 0.316 µM, first compound 1 µM): 77.7%
viability, T/C (second compound 1 µM, first compound 0.00316 µM): 76.4%
viability, T/C (second compound 1 µM, first compound 0.01 µM): 73.5%
viability, T/C (second compound 1 µM, first compound 0.0316 µM): 81.8%
viability, T/C (second compound 1 µM, first compound 0.1 µM): 56.2%
viability, T/C (second compound 1 µM, first compound 0.316 µM): 69.5%
viability, T/C (second compound 1 µM, first compound 1 µM): 64.1%
viability, T/C (second compound 3.16 µM, first compound 0.00316 µM): 69.5%
viability, T/C (second compound 3.16 µM, first compound 0.01 µM): 69.7%
viability, T/C (second compound 3.16 µM, first compound 0.0316 µM): 69.8%
viability, T/C (second compound 3.16 µM, first compound 0.1 µM): 63.9%
viability, T/C (second compound 3.16 µM, first compound 0.316 µM): 52.7%
viability, T/C (second compound 3.16 µM, first compound 1 µM): 72.7%
viability, T/C (second compound 10 µM, first compound 0.00316 µM): 69.5%
viability, T/C (second compound 10 µM, first compound 0.01 µM): 70.6%
viability, T/C (second compound 10 µM, first compound 0.0316 µM): 61%
viability, T/C (second compound 10 µM, first compound 0.1 µM): 57.9%
viability, T/C (second compound 10 µM, first compound 0.316 µM): 57.7%
viability, T/C (second compound 10 µM, first compound 1 µM): 59%
